As a reminder, the Emax is the maximal effect, on the per cent scale that the assay sets. What is called EC50 is the midpoint of the concentration-response curve. Higher therefore signals a less potent agent.

The results in this text go back to patent US20090069302A1 (SMITHKLINE BEECHAM CORPORATION, priority 2006, published 2009).

The target of the experiment is T1, AXOR109 (Homo sapiens, UniProt Q8TDU6).
T1 construct: expressed in transfected cells; host or cells: melanophore cells, transfected by electroporation
T1 sequence (Q8TDU6 1-330): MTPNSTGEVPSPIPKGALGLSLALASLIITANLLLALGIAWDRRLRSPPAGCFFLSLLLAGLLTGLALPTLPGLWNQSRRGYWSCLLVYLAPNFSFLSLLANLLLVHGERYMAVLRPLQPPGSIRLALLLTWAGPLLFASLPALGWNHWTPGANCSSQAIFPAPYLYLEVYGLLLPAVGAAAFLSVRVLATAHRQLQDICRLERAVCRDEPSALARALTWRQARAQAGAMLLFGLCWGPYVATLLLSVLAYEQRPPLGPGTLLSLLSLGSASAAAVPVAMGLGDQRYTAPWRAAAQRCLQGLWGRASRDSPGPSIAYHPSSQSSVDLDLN
The experiment in a line: Human AXOR109/Melanophore Assay. In kind it is cell-based. As to conditions: melanophore assay; for Emax: 1 h, normalized to alpha-MSH system max; for EC50: AXOR109 transfected melanophores. The procedure:
AXOR109 is a Gs-coupled receptor and therefore increases intracellular cAMP leading to melanosome dispersion. Compounds of the present invention were characterized in a melanophore assay as described in Jayawickreme C K, et al., Current Protocols in Pharmacology (2005) 12.9.1-12.9.16. Briefly, melanophore cells are transfected by electroporation with AXOR109 expressing cDNA. Cells are then plated in 384 well clear bottom plates at 8E3 cells per well in 50 μl of conditioned fibroblast media (CFM). Compounds to be tested are serially diluted 3-fold in DMSO and further diluted 1:100 with melanophore assay buffer (MAB)+10 nM Melatonin to yield 11 point concentration response curves. Following 2 hour incubation with MAB+1% DMSO+10 nM Melatonin, initial transmittance is read on a TwisterII/Spectramax plate reader. Compounds are then added to the cells and incubated for 1 hour, and final transmittance is read as before. Results are compared to vehicle (MAB+1% DMSO+10 nM Melatonin) and to a positive control (MAB+1% DMSO+10 nM Melatonin+200 nM alpha-MSH). Data are calculated for each well as follows: 1-(Transmitance-final/Transmitance-initial). Each well result is then normalized to alpha-MSH, the system max control for Gs/Gq coupled receptors using the following equation: (ObjX−Control1)/(Control2−Control1)*100. The percent system max is used to generate the pEC50 using the equation: y=((Vmax*x̂n)/(K̂n+x̂n))+Y2. Acceptable Z-prime values should be >0.4. Compounds of the present invention have a pEC50≧5.0 in the above described assay.

Each structure is given as a SMILES string. Some results are limits rather than exact numbers.

Take `COc1cccc(S(=O)(=O)N2C[C@@H](C)N(S(=O)(=O)c3ccc(OC)c(OC)c3)[C@@H](C)C2)c1` [Example 33, 1-{[3,4-bis(methyloxy)phenyl]sulfonyl}-2,6-cis-dimethyl-4-{[3-(methyloxy)phenyl]sulfonyl}piperazine]: the Emax fell in the range of 51 to 75% and the EC50 is 1260 to 10000 nM.
Take `COc1ccc(S(=O)(=O)N2CCN(S(=O)(=O)c3ccc(C)cc3OC)CC2)cc1OC` [Example 3, 1-{[3,4-bis(methyloxy)phenyl]sulfonyl}-4-{[4-methyl-2-(methyloxy)phenyl]sulfonyl}piperazine]: the Emax was 51 to 75% and the concentration for a half-maximal effect (EC50) is 1260 to 10000 nM.
On to `COc1ccc(S(=O)(=O)N(C)CCN(C)S(=O)(=O)c2ccc(OC)c(OC(F)(F)F)c2)cc1OC` [Example 31, N-methyl-N-{2-[methyl({4-(methyloxy)-3 [(trifluoromethyl)oxy]phenyl}sulfonyl)amino]ethyl}-3,4-bis(methyloxy)benzenesulfonamide], for which the Emax is 0 to 50% and the EC50 was 126 to 1000 nM.
As to `COc1ccc(S(=O)(=O)N2CC(C)N(S(=O)(=O)c3ccc(OC)c(OC)c3)C(C)C2C)cc1OC` (stereo not shown) [Example 39, 1,4-bis{[3,4-bis(methyloxy)phenyl]sulfonyl}-2,3,5-trimethylpiperazine], the maximal effect (Emax) was 0 to 50% and the EC50 is 1260 to 10000 nM.
In the case of `COc1ccc(S(=O)(=O)N2CC[C@H](N(C)S(=O)(=O)c3ccc(OC)c(OC)c3)C2)cc1OC` (stereo in doubt) [Example 84], the maximal response (Emax) lay in the range of 51 to 75% and the EC50 is 1260 to 10000 nM.
`COc1ccc(S(=O)(=O)N2CCN(S(=O)(=O)c3ccc(OC)c(OC)c3)CC2)cc1F` [Example 1, 1-{[3,4-bis(methyloxy)phenyl]sulfonyl}-4-{[3-fluoro-4-(methyloxy)phenyl]sulfonyl}piperazine] had an EC50 of 126 to 1000 nM.
Molecule `COc1ccc(S(=O)(=O)N2CCN(S(=O)(=O)c3ccc(OC)c(OC)c3)[C@@H](C)[C@H]2C)cc1OC` [Example 40, 1,4-bis{[3,4-bis(methyloxy)phenyl]sulfonyl}-2,3-dimethylpiperazine] had an Emax of 51 to 75% and an EC50 of 126 to 1000 nM.
The molecule `CCCN([C@@H]1CCN(S(=O)(=O)c2ccc(OC)c(OC)c2)C1)S(=O)(=O)c1ccc(OC)c(OC)c1` [Example 59, N-((3R)-1-{[3,4-bis(methyloxy)phenyl]sulfonyl}-3-pyrrolidinyl)-3,4-bis(methyloxy)-N-propylbenzenesulfonamide] had a maximal response (Emax) of 76 to 100% and an EC50 of 126 to 1000 nM.
In turn, `COc1ccc(S(=O)(=O)NC2CCCCN(S(=O)(=O)c3ccc(OC)c(OC)c3)C2)cc1OC` (stereo not shown) [Example 25, N-(1-{[3,4-bis(methyloxy)phenyl]sulfonyl}hexahydro-1H-azepin-3-yl)-3,4-bis(methyloxy)benzenesulfonamide] had a maximum response (Emax) of 0 to 50% and a concentration giving a half-maximal response (EC50) of 1260 to 10000 nM.
Taken in the same sequence, the figures for `COc1ccc(S(=O)(=O)N2C[C@@H](C)N(S(=O)(=O)c3ccc(OC)c(OC)c3)[C@@H](C)C2)cc1OC` [Example 79, cis-1,4-bis{[3,4-bis(methyloxy)phenyl]sulfonyl}-2,6-dimethylpiperazine] were > 100% and < 126 nM.
Molecule `COc1ccc(S(=O)(=O)N2C[C@H](C)N(S(=O)(=O)c3cccc4cccnc34)C[C@@H]2C)cc1OC` [Example 69, 8-[((2S,5S)-4-{[3,4-bis(methyloxy)phenyl]sulfonyl}-2,5-dimethyl-1-piperazinyl)sulfonyl]quinoline] showed an Emax of 76 to 100% and an EC50 of 1260 to 10000 nM.
In turn, `CC[C@@H]1CN(S(=O)(=O)c2ccc(OC)c(OC)c2)[C@@H](CC)CN1S(=O)(=O)c1ccc(OC)c(OC)c1` [Example 45, (2R,5S)-1,4-bis{[3,4-bis(methyloxy)phenyl]sulfonyl}-2,5-diethylpiperazine] showed an Emax of 76 to 100% and a concentration for a half-maximal effect (EC50) of 1260 to 10000 nM.
`COc1ccc(S(=O)(=O)N2CCN(S(=O)(=O)c3ccc(OC)c(OC)c3)C(C)C2)cc1OC` (stereo not shown) [Example 29, 1,4-bis{[3,4-bis(methyloxy)phenyl]sulfonyl}-2-methylpiperazine]: the Emax fell in the range of 51 to 75% and the concentration giving a half-maximal response (EC50) is 126 to 1000 nM.
`CCN(C[C@@H]1CCCN1S(=O)(=O)c1ccc(OC)c(OC)c1)S(=O)(=O)c1ccc(OC)c(OC)c1` [Example 95, N-[((2S)-1-{[3,4-bis(methyloxy)phenyl]sulfonyl}-2-pyrrolidinyl)methyl]-N-ethyl-3,4-bis(methyloxy)benzenesulfonamide] had a maximum response (Emax) of 76 to 100% and an EC50 of 126 to 1000 nM.
Turning to `CCN([C@@H]1CCN(S(=O)(=O)c2ccc(OC)c(OC)c2)C1)S(=O)(=O)c1ccc(OC)c(OC)c1` [Example 60, N-((3R)-1-{[3,4-bis(methyloxy)phenyl]sulfonyl}-3-pyrrolidinyl)-N-ethyl-3,4-bis(methyloxy)benzenesulfonamide], the Emax was 76 to 100% and the 50% effective concentration (EC50) is < 126 nM.
`COc1ccc(S(=O)(=O)N2CCN(S(=O)(=O)c3ccc4c(c3)OCCO4)CC2)cc1OC` [Example 78, 1-{[3,4-bis(methyloxy)phenyl]sulfonyl}-4-(2,3-dihydro-1,4-benzodioxin-6-ylsulfonyl)piperazine] gave a maximal effect (Emax) of 51 to 75% and an EC50 of 1260 to 10000 nM.
Regarding `COc1ccc(S(=O)(=O)N2CCN(S(=O)(=O)c3ccc(OC)c(OC)c3)CC2)cc1` [Example 6, 1-{[3,4-bis(methyloxy)phenyl]sulfonyl}-4-{[4-(methyloxy)phenyl]sulfonyl}piperazine], the Emax fell in the range of 0 to 50% and the EC50 was 126 to 1000 nM.
In turn, `COc1ccc(S(=O)(=O)N2CC(C)(C)N(S(=O)(=O)c3ccc(OC)c(OC)c3)CC2=O)cc1OC` [Example 48, 1,4-bis{[3,4-bis(methyloxy)phenyl]sulfonyl}-5,5-dimethyl-2-piperazinone] showed an Emax of 76 to 100% and an EC50 of 1260 to 10000 nM.
Molecule `COc1cccc(S(=O)(=O)N(C)CCN(C)S(=O)(=O)c2ccc(OC)c(OC)c2)c1` [Example 10, N-methyl-N-[2-(methyl{[3-(methyloxy)phenyl]sulfonyl}amino)ethyl]-3,4-bis(methyloxy)benzenesulfonamide] gave a maximal effect (Emax) of 76 to 100% and an EC50 of 126 to 1000 nM.
In turn, `COc1ccc(S(=O)(=O)N(CCN(C2CC2)S(=O)(=O)c2ccc(OC)c(OC)c2)C(C)C)cc1OC` [Example 89] had an Emax of 76 to 100% and an EC50 of 126 to 1000 nM.
Consider `COc1ccc(S(=O)(=O)N(C)CC(C)N(C)S(=O)(=O)c2ccc(OC)c(OC)c2)cc1OC` (stereo not shown) [Example 44, N,N′-1,2-propanediylbis[N-methyl-3,4-bis(methyloxy)benzenesulfonamide]], for which the Emax was in the range of 51 to 75% and the half-maximal effective concentration (EC50) was 126 to 1000 nM.
For `COc1ccc(S(=O)(=O)N(C)C(C)C(C)N(C)S(=O)(=O)c2ccc(OC)c(OC)c2)cc1OC` (stereo not shown) [Example 55, N,N′-2,3-butanediylbis[N-methyl-3,4-bis(methyloxy)benzenesulfonamide]], the maximal response (Emax) was 51 to 75% and the 50% effective concentration (EC50) was 126 to 1000 nM.
Taken in the same sequence, the figures for `CCCN([C@H]1CCN(S(=O)(=O)c2ccc(OC)c(OC)c2)C1)S(=O)(=O)c1ccc(OC)c(OC)c1` [Example 61, N-((3S)-1-{[3,4-bis(methyloxy)phenyl]sulfonyl}-3-pyrrolidinyl)-3,4-bis(methyloxy)-N-propylbenzenesulfonamide] were 76 to 100% and 1260 to 10000 nM.
In the case of `COc1ccc(S(=O)(=O)NCC(C)N(C)S(=O)(=O)c2ccc(OC)c(OC)c2)cc1OC` (stereo not shown) [Example 66, N-[2-({[3,4-bis(methyloxy)phenyl]sulfonyl}amino)-1-methylethyl]-N-methyl-3,4-bis(methyloxy)benzenesulfonamide], the Emax lay in the range of 51 to 75% and the EC50 was 1260 to 10000 nM.
In turn, `COc1ccc(S(=O)(=O)N2CC[C@@H](N(C)S(=O)(=O)c3ccc(OC)c(OC)c3)C2)cc1OC` [Example 85] had an Emax of 51 to 75% and an EC50 of 126 to 1000 nM.
`COc1ccc(S(=O)(=O)N2CCC(N(CC(C)C)S(=O)(=O)c3ccc(OC)c(OC)c3)C2)cc1OC` (stereo not shown) [Example 57, N-(1-{[3,4-bis(methyloxy)phenyl]sulfonyl}-3-pyrrolidinyl)-3,4-bis(methyloxy)-N-(2-methylpropyl)benzenesulfonamide] gave a maximal effect (Emax) of 51 to 75% and a concentration giving a half-maximal response (EC50) of 1260 to 10000 nM.
On to `COc1ccc(S(=O)(=O)N2C[C@H](C)N(S(=O)(=O)c3ccc(OC)c(OC)c3)C[C@@H]2C)cc1F` [Example 67, (2S,5S)-1-{[3,4-bis(methyloxy)phenyl]sulfonyl}-4-{[3-fluoro-4-(methyloxy)phenyl]sulfonyl}-2,5-dimethylpiperazine], for which the concentration giving a half-maximal response (EC50) was 126 to 1000 nM.
